According to the NIST ThermoML archive (doi:10.1016/j.jct.2003.11.008):

Legend:
[1] = excess molar enthalpy (molar enthalpy of mixing); xn = mol fraction of the nth substance listed; details: 318.15 K, 101.3 kPa, Liquid
[2] = xn = mol fraction of the nth substance listed; details: 318.15 K, 101.3 kPa, Liquid

CCCCCCCCC [nonane] + COC(C)=O
Details | excess molar enthalpy [kcal/mol] | excess molar volume [m3/mol]
[1], x2 = 0.0822 | 0.131 | –
[1], x2 = 0.1628 | 0.241 | –
[1], x2 = 0.2353 | 0.335 | –
[1], x2 = 0.2999 | 0.398 | –
[1], x2 = 0.364 | 0.448 | –
[1], x2 = 0.4195 | 0.481 | –
[1], x2 = 0.4714 | 0.497 | –
[1], x2 = 0.5122 | 0.504 | –
[1], x2 = 0.549 | 0.507 | –
[1], x2 = 0.5847 | 0.506 | –
[1], x2 = 0.621 | 0.502 | –
[1], x2 = 0.6618 | 0.49 | –
[1], x2 = 0.7017 | 0.463 | –
[1], x2 = 0.7452 | 0.433 | –
[1], x2 = 0.7891 | 0.388 | –
[1], x2 = 0.8353 | 0.343 | –
[1], x2 = 0.8771 | 0.289 | –
[1], x2 = 0.9219 | 0.208 | –
[1], x2 = 0.9643 | 0.103 | –
[2], x2 = 0.1052 | – | 6.91e-07
[2], x2 = 0.2035 | – | 1.199e-06
[2], x2 = 0.2896 | – | 1.534e-06
[2], x2 = 0.3598 | – | 1.693e-06
[2], x2 = 0.4249 | – | 1.805e-06
[2], x2 = 0.4901 | – | 1.864e-06
[2], x2 = 0.547 | – | 1.881e-06
[2], x2 = 0.5991 | – | 1.837e-06
[2], x2 = 0.6418 | – | 1.774e-06
[2], x2 = 0.6901 | – | 1.658e-06
[2], x2 = 0.7312 | – | 1.562e-06
[2], x2 = 0.7687 | – | 1.431e-06
[2], x2 = 0.7969 | – | 1.305e-06
[2], x2 = 0.8736 | – | 9.39e-07
[2], x2 = 0.925 | – | 6.28e-07
[2], x2 = 0.9663 | – | 3.07e-07

CCCCCCCCCCCCCCC [pentadecane] + CCCCCOC(C)=O
Details | excess molar enthalpy [kcal/mol] | excess molar volume [m3/mol]
[1], x2 = 0.0764 | 0.0832 | –
[1], x2 = 0.1647 | 0.162 | –
[1], x2 = 0.2553 | 0.227 | –
[1], x2 = 0.3274 | 0.268 | –
[1], x2 = 0.3976 | 0.296 | –
[1], x2 = 0.4632 | 0.312 | –
[1], x2 = 0.5222 | 0.317 | –
[1], x2 = 0.5758 | 0.314 | –
[1], x2 = 0.6183 | 0.305 | –
[1], x2 = 0.6614 | 0.286 | –
[1], x2 = 0.7069 | 0.264 | –
[1], x2 = 0.7552 | 0.235 | –
[1], x2 = 0.8041 | 0.2 | –
[1], x2 = 0.856 | 0.158 | –
[1], x2 = 0.9056 | 0.111 | –
[1], x2 = 0.955 | 0.057 | –
[2], x2 = 0.097 | – | 2.96e-07
[2], x2 = 0.1823 | – | 5.2e-07
[2], x2 = 0.2485 | – | 6.56e-07
[2], x2 = 0.3223 | – | 7.83e-07
[2], x2 = 0.3863 | – | 8.63e-07
[2], x2 = 0.4452 | – | 9.09e-07
[2], x2 = 0.5075 | – | 9.32e-07
[2], x2 = 0.5553 | – | 9.44e-07
[2], x2 = 0.6017 | – | 9.31e-07
[2], x2 = 0.6519 | – | 9.05e-07
[2], x2 = 0.6946 | – | 8.56e-07
[2], x2 = 0.7436 | – | 7.87e-07
[2], x2 = 0.7672 | – | 7.53e-07
[2], x2 = 0.8482 | – | 5.78e-07
[2], x2 = 0.9107 | – | 3.7e-07
[2], x2 = 0.9606 | – | 1.78e-07

CCCCCCCCCCCCCCC [pentadecane] + CCCCOC(C)=O
Details | excess molar enthalpy [kcal/mol] | excess molar volume [m3/mol]
[1], x2 = 0.0884 | 0.0988 | –
[1], x2 = 0.1775 | 0.179 | –
[1], x2 = 0.2593 | 0.249 | –
[1], x2 = 0.3266 | 0.29 | –
[1], x2 = 0.3936 | 0.322 | –
[1], x2 = 0.4468 | 0.341 | –
[1], x2 = 0.4996 | 0.353 | –
[1], x2 = 0.5472 | 0.356 | –
[1], x2 = 0.5896 | 0.353 | –
[1], x2 = 0.6217 | 0.345 | –
[1], x2 = 0.6332 | 0.341 | –
[1], x2 = 0.6756 | 0.322 | –
[1], x2 = 0.7198 | 0.298 | –
[1], x2 = 0.7661 | 0.269 | –
[1], x2 = 0.8132 | 0.232 | –
[1], x2 = 0.8631 | 0.187 | –
[1], x2 = 0.9114 | 0.132 | –
[1], x2 = 0.9607 | 0.0673 | –
[2], x2 = 0.1004 | – | 3.55e-07
[2], x2 = 0.1982 | – | 6.25e-07
[2], x2 = 0.2765 | – | 7.99e-07
[2], x2 = 0.3418 | – | 9.17e-07
[2], x2 = 0.417 | – | 9.97e-07
[2], x2 = 0.4757 | – | 1.034e-06
[2], x2 = 0.5299 | – | 1.057e-06
[2], x2 = 0.5843 | – | 1.052e-06
[2], x2 = 0.6319 | – | 1.024e-06
[2], x2 = 0.6767 | – | 9.8e-07
[2], x2 = 0.7173 | – | 9.26e-07
[2], x2 = 0.7606 | – | 8.62e-07
[2], x2 = 0.7836 | – | 8.17e-07
[2], x2 = 0.8619 | – | 5.97e-07
[2], x2 = 0.9208 | – | 3.91e-07
[2], x2 = 0.9647 | – | 1.72e-07

CCCCCCCCCCCCCCC [pentadecane] + CCCOC(C)=O
Details | excess molar enthalpy [kcal/mol] | excess molar volume [m3/mol]
[1], x2 = 0.1056 | 0.137 | –
[1], x2 = 0.1903 | 0.23 | –
[1], x2 = 0.2687 | 0.303 | –
[1], x2 = 0.3385 | 0.354 | –
[1], x2 = 0.4042 | 0.389 | –
[1], x2 = 0.4596 | 0.409 | –
[1], x2 = 0.5101 | 0.421 | –
[1], x2 = 0.5521 | 0.421 | –
[1], x2 = 0.5935 | 0.416 | –
[1], x2 = 0.634 | 0.405 | –
[1], x2 = 0.674 | 0.389 | –
[1], x2 = 0.715 | 0.369 | –
[1], x2 = 0.7583 | 0.339 | –
[1], x2 = 0.8027 | 0.301 | –
[1], x2 = 0.8473 | 0.254 | –
[1], x2 = 0.8921 | 0.193 | –
[1], x2 = 0.9369 | 0.126 | –
[1], x2 = 0.9732 | 0.0589 | –
[2], x2 = 0.0878 | – | 3.42e-07
[2], x2 = 0.1416 | – | 5.35e-07
[2], x2 = 0.2112 | – | 7.4e-07
[2], x2 = 0.3035 | – | 9.75e-07
[2], x2 = 0.3749 | – | 1.102e-06
[2], x2 = 0.4446 | – | 1.188e-06
[2], x2 = 0.5048 | – | 1.254e-06
[2], x2 = 0.5631 | – | 1.259e-06
[2], x2 = 0.6193 | – | 1.238e-06
[2], x2 = 0.6657 | – | 1.213e-06
[2], x2 = 0.742 | – | 1.093e-06
[2], x2 = 0.8073 | – | 9.36e-07
[2], x2 = 0.8769 | – | 6.9e-07
[2], x2 = 0.9297 | – | 4.51e-07
[2], x2 = 0.9673 | – | 2.26e-07
